Assay results as given in PubChem BioAssay (NCI).
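Method: 48-hour compound exposure of cells in 96-well plates, five concentrations, linear interpolation of endpoints. Here, GI50 denotes the concentration required for 50% inhibition of growth. TGI: total growth inhibition.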

Experiments:
Test in all cases: inhibition of tumour cell growth, NCI panel, 48 h
[1] = test system: OVCAR-5 ovarian
[2] = test system: RXF 393 renal
[3] = test system: HT29 colon
[4] = test system: LOX IMVI melanoma
[5] = test system: TK-10 renal
[6] = test system: NCI-H23 lung
[7] = test system: M14 melanoma
[8] = test system: UACC-257 melanoma
[9] = test system: T-47D breast
[10] = test system: NCI-H460 lung
[11] = test system: SF-268 CNS
[12] = test system: HL-60(TB) leukemia
[13] = test system: A549 NSCLC
[14] = test system: SK-MEL-28 melanoma
[15] = test system: NCI/ADR-RES ovarian
[16] = test system: RPMI-8226 leukemia
[17] = test system: SNB-19 CNS
[18] = test system: HOP-92 NSCLC
[19] = test system: HS 578T breast
[20] = test system: SN12C renal
[21] = test system: ACHN renal
[22] = test system: CAKI-1 renal
[23] = test system: MDA-MB-231 breast
[24] = test system: HCT-15 colon
[25] = test system: 786-0 renal
[26] = test system: CCRF-CEM leukemia
[27] = test system: SW-620 colon
[28] = test system: MALME-3M melanoma
[29] = test system: NCI-H226 lung
[30] = test system: HCT-116 colon
[31] = test system: UO-31 renal
[32] = test system: OVCAR-8 ovarian
[33] = test system: MOLT-4 leukemia
[34] = test system: SK-MEL-2 melanoma
[35] = test system: SR leukemia
[36] = test system: UACC-62 melanoma
[37] = test system: U251 CNS
[38] = test system: MCF7 breast
[39] = test system: MDA-MB-435
[40] = test system: PC-3 prostate
[41] = test system: SK-OV-3 ovarian
[42] = test system: A498 renal
[43] = test system: NCI-H522 lung
[44] = test system: IGROV1 ovarian
[45] = test system: DU-145 prostate
[46] = test system: HCC-2998 colon
[47] = test system: BT-549 breast
[48] = test system: OVCAR-4 ovarian
[49] = test system: SF-295 CNS
[50] = test system: EKVX NSCLC
[51] = test system: HOP-62 NSCLC
[52] = test system: K-562 leukemia
[53] = test system: KM12 colon
[54] = test system: SF-539 CNS

## CC(C)(C)c1cc(NC(=O)Nc2ccc(-c3cn4c5c(sc4n3)CCc3cn(CCCN4CCCCC4)cc3-5)cc2)no1
[1]
  GI50: 1.75 µM
  TGI: 3.18 µM
[2]
  GI50: 1.6 µM
  TGI: 3.1 µM
[3]
  GI50: 1.99 µM
  TGI: 3.91 µM
[4]
  GI50: 1.8 µM
  TGI: 3.3 µM
[5]
  GI50: 1.82 µM
  TGI: 3.27 µM
[6]
  GI50: 1.82 µM
  TGI: 3.52 µM
[7]
  GI50: 1.71 µM
  TGI: 3.15 µM
[8]
  GI50: 1.79 µM
  TGI: 3.5 µM
[9]
  GI50: 1.79 µM
  TGI: 3.85 µM
[10]
  GI50: 1.8 µM
  TGI: 3.64 µM
[11]
  GI50: 1.81 µM
  TGI: 3.89 µM
[12]
  GI50: 1.88 µM
  TGI: 6.27 µM
[13]
  GI50: 1.83 µM
  TGI: 3.47 µM
[14]
  GI50: 1.82 µM
  TGI: 3.25 µM
[15]
  GI50: 2.09 µM
  TGI: 4.73 µM
[16]
  GI50: 2.36 µM
  TGI: 6.28 µM
[17]
  GI50: 1.82 µM
  TGI: 3.34 µM
[18]
  GI50: 1.42 µM
  TGI: 2.82 µM
[19]
  GI50: 1.82 µM
  TGI: 3.85 µM
[20]
  GI50: 1.85 µM
  TGI: 3.49 µM
[21]
  GI50: 1.79 µM
  TGI: 3.21 µM
[22]
  GI50: 1.64 µM
  TGI: 3.12 µM
[23]
  GI50: 1.95 µM
  TGI: 3.73 µM
[24]
  GI50: 1.66 µM
  TGI: 3.3 µM
[25]
  GI50: 1.76 µM
  TGI: 3.21 µM
[26]
  GI50: 2.01 µM
  TGI: 6.44 µM
[27]
  GI50: 1.8 µM
  TGI: 3.36 µM
[28]
  GI50: 1.71 µM
  TGI: 3.38 µM
[29]
  GI50: > 100 µM
  TGI: > 100 µM
[30]
  GI50: 1.67 µM
  TGI: 3.22 µM
[31]
  GI50: 1.6 µM
  TGI: 3 µM
[32]
  GI50: 2.27 µM
  TGI: 5.26 µM
[33]
  GI50: 1.93 µM
  TGI: 6.83 µM
[34]
  GI50: > 100 µM
  TGI: > 100 µM
[35]
  GI50: 2.13 µM
  TGI: 6.77 µM
[36]
  GI50: > 100 µM
  TGI: > 100 µM
[37]
  GI50: 1.47 µM
  TGI: 2.88 µM
[38]
  GI50: 1.75 µM
  TGI: 3.81 µM
[39]
  GI50: 1.73 µM
  TGI: 3.17 µM
[40]
  GI50: 1.71 µM
  TGI: 3.23 µM
[41]
  GI50: 1.72 µM
  TGI: 3.28 µM
[42]
  GI50: 1.76 µM
  TGI: 3.15 µM
[43]
  GI50: 1.89 µM
  TGI: 3.74 µM
[44]
  GI50: 1.96 µM
  TGI: 3.82 µM
[45]
  GI50: 1.77 µM
  TGI: 3.17 µM
[46]
  GI50: 1.91 µM
  TGI: 3.77 µM
[47]
  GI50: 1.75 µM
  TGI: 3.29 µM
[48]
  GI50: 1.78 µM
  TGI: 3.59 µM
[49]
  GI50: 1.73 µM
  TGI: 3.25 µM
[50]
  GI50: 1.79 µM
  TGI: 3.23 µM
[51]
  GI50: 1.9 µM
  TGI: 3.75 µM
[52]
  GI50: 2.57 µM
  TGI: > 100 µM
[53]
  GI50: 1.9 µM
  TGI: 3.83 µM
[54]
  GI50: 1.74 µM
  TGI: 3.18 µM
